The record followed here is US8354416B2 (Glaxo Group Limited, priority 2005, dated 2013).

Structures are written as SMILES. Counter-ions that a name gives are not always drawn.

This test concerns influx of neutrophils to the lung in LPS-challenged rats. The test is described as follows: Rat LPS neutrophilia model. To be noted: intratracheal, LPS aerosol 100 ug/ml, in at least one of the range of conditions tested, significance p<0.05. It counts as in vivo. Here is the method: Rat LPS Neutrophilia Model
The effect of compounds on the influx of neutrophils to the lung in LPS-challenged rats is evaluated as follows. The test compound is suspended in one of the following solutions: 0.5% tween 80/PBS, 0.5% tween 80/saline, 10% EtOH/saline (with pH adjusted to 2.0, or 8.0 with HCl, or unadjusted), Saline (pH 2.0, 6.5 or 8.0, 0.5% Tragacanth, 1% DMSO/20% Encapsin/Saline, or acidified 5% Tragacanth. The suspension process may be aided by the use of a glass homogenizer. For intratracheal administration, the animals are anesthetized with inhaled isoflurane and placed in a supine position, the trachea is intubated with a steel gavage needle (1.5 inch, 22 gauge, small ball) or a Penn-Century Microsprayer Aerosolizer (model IA-1B) and 200 ul of dosing solution is delivered. The animals are visually monitored during the recovery process, which typically occurs within two minutes. It is noted that the test compounds may be alternatively administered via the microsprayer in a dry powder blend with a suitable excipient, such as lactose.
Rats treated with compound or vehicle (15 min-24 hours pretreatment) are exposed to an LPS aerosol (100 ug/ml) for 15 min. Four hours later the rats are euthanized with pentobarbital (100 mg/kg, i.p.) and the airways are lavaged with 5 washes of 5 ml of phosphate buffered saline. The harvested cells are stained (Diffquick) and counted to determine total and differential cell data. […] Inhibition of neutrophil levels relative to no compound controls is calculated based on the differential counts.
The data is obtained as % inhibition using a particular concentration and pretreat time.
For `CCN(CC)CCCNc1nc(-c2cc(C(=O)NC3CCC3)ccc2C)c2ccc(=O)n(-c3c(F)cccc3F)c2n1` [Example 137, N-cyclobutyl-3-[2-{[3-(diethylamino)propyl]amino}-8-(2,6-difluorophenyl)-7-oxo-7,8-dihydropyrido[2,3-d]pyrimidin-4-yl]-4-methylbenzamide trifluoroacetate], the “inhibition of neutrophilia (neutrophil levels in airway lavage relative to no compound controls)” value is given as “statistically significant inhibition of neutrophilia”.
Then `CNCCNc1nc(-c2cc(C(=O)NCC3CC3)ccc2C)c2ccc(=O)n(-c3c(F)cccc3F)c2n1` [Example 4], with “statistically significant inhibition of neutrophilia”.
On to `CCN(CC)CCCNc1nc(-c2cc(C(=O)NCC3CCCCC3)ccc2C)c2ccc(=O)n(-c3c(F)cccc3F)c2n1` [Example 135, N-(cyclohexylmethyl)-3-[2-{[3-(diethylamino)propyl]amino}-8-(2,6-difluorophenyl)-7-oxo-7,8-dihydropyrido[2,3-d]pyrimidin-4-yl]-4-methylbenzamidetrifluoroacetate], for which the “inhibition of neutrophilia (neutrophil levels in airway lavage relative to no compound controls)” value was “inactive”.
For the compound `CCN(CC)CCCNc1nc(-c2cc(C(=O)NCCOC)ccc2C)c2ccc(=O)n(-c3c(F)cccc3F)c2n1` [Example 134, 3-[2-{[3-(diethylamino)propyl]amino}-8-(2,6-difluorophenyl)-7-oxo-7,8-dihydropyrido[2,3-d]pyrimidin-4-yl]-4-methyl-N-[2-(methyloxy)ethyl]benzamidetrifluoroacetate], the “inhibition of neutrophilia (neutrophil levels in airway lavage relative to no compound controls)” value was “statistically nonsignificant inhibition of neutrophilia”.
As for `CCC(C)NC(=O)c1ccc(C)c(-c2nc(NCCCN(CC)CC)nc3c2ccc(=O)n3-c2c(F)cccc2F)c1` (stereo not shown) [Example 162, 3-[2-{[3-(diethylamino)propyl]amino}-8-(2,6-difluorophenyl)-7-oxo-7,8-dihydropyrido[2,3-d]pyrimidin-4-yl]-4-methyl-N-(1-methylpropyl)benzamide], the “inhibition of neutrophilia (neutrophil levels in airway lavage relative to no compound controls)” value is recorded as “statistically nonsignificant inhibition of neutrophilia”.
With `Cc1ccc(C(=O)Nc2nccs2)cc1-c1nc(NCCN(C)C)nc2c1ccc(=O)n2-c1c(F)cccc1F` [Example 109, 3-(8-(2,6-difluorophenyl)-2-{[2-(dimethylamino)ethyl]amino}-7-oxo-7,8-dihydropyrido[2,3-d]pyrimidin-4-yl)-4-methyl-N-1,3-thiazol-2-ylbenzamide], the “inhibition of neutrophilia (neutrophil levels in airway lavage relative to no compound controls)” value is “statistically significant inhibition of neutrophilia”.
Then `Cc1ccc(C(=O)NC(C)C)cc1-c1nc(NCCN(C)C)nc2c1ccc(=O)n2-c1c(F)cccc1F` [Example 117, 3-(8-(2,6-difluorophenyl)-2-{[2-(dimethylamino)ethyl]amino}-7-oxo-7,8-dihydropyrido[2,3-d]pyrimidin-4-yl)-4-methyl-N-(1-methylethyl)benzamide], with “statistically significant inhibition of neutrophilia”; and `CCCNC(=O)c1ccc(C)c(-c2nc(N3CCC(N)CC3)nc3c2ccc(=O)n3-c2c(F)cccc2F)c1` [Example 69, 3-[2-(4-amino-1-piperidinyl)-8-(2,6-difluorophenyl)-7-oxo-7,8-dihydropyrido[2,3-d]pyrimidin-4-yl]-4-methyl-N-propylbenzamide], with “statistically significant inhibition of neutrophilia”; and `CCCNC(=O)c1ccc(C)c(-c2nc(NCCN(C)C)nc3c2ccc(=O)n3-c2c(F)cccc2F)c1` [Example 105, 3-(8-(2,6-difluorophenyl)-2-{[2-(dimethylamino)ethyl]amino}-7-oxo-7,8-dihydropyrido[2,3-d]pyrimidin-4-yl)-4-methyl-N-propylbenzamide], with “statistically significant inhibition of neutrophilia”.
As to `CCN(CC)CCCNc1nc(-c2cc(C(=O)NCC3CC3)ccc2C)c2ccc(=O)n(-c3c(F)cccc3F)c2n1` [Example 138, N-(cyclopropylmethyl)-3-[2-{[3-(diethylamino)propyl]amino}-8-(2,6-difluorophenyl)-7-oxo-7,8-dihydropyrido[2,3-d]pyrimidin-4-yl]-4-methylbenzamide trifluoroacetate], the “inhibition of neutrophilia (neutrophil levels in airway lavage relative to no compound controls)” value was “statistically nonsignificant inhibition of neutrophilia”.
In the case of `Cc1ccc(C(=O)Nc2ccc(F)cc2)cc1-c1nc(N2CCC(N3CCC(C)CC3)CC2)nc2c1ccc(=O)n2-c1c(F)cccc1F` [Example 174, 3-[8-(2,6-difluorophenyl)-2-(4-methyl-1,4′-bipiperidin-1′-yl)-7-oxo-7,8-dihydropyrido[2,3-d]pyrimidin-4-yl]-N-(4-fluorophenyl)-4-methylbenzamide], the “inhibition of neutrophilia (neutrophil levels in airway lavage relative to no compound controls)” value was “inactive”.
As for `Cc1ccc(C(=O)Nc2ccc(F)cc2)cc1-c1nc(NCCN(C)C)nc2c1ccc(=O)n2-c1c(F)cccc1F` [Example 112, 3-(8-(2,6-difluorophenyl)-2-{[2-(dimethylamino)ethyl]amino}-7-oxo-7,8-dihydropyrido[2,3-d]pyrimidin-4-yl)-N-(4-fluorophenyl)-4-methylbenzamide], the entry is “statistically nonsignificant inhibition of neutrophilia”.
Consider `CNCCNc1nc(-c2cc(C(=O)NCCc3ccccc3)ccc2C)c2ccc(=O)n(-c3c(F)cccc3F)c2n1` [Example 29, 3-(8-(2,6-difluorophenyl)-2-{[2-(methylamino)ethyl]amino}-7-oxo-7,8-dihydropyrido[2,3-d]pyrimidin-4-yl)-4-methyl-N-(2-phenylethyl)benzamide], for which the “inhibition of neutrophilia (neutrophil levels in airway lavage relative to no compound controls)” value is “statistically significant inhibition of neutrophilia”.
For `Cc1ccc(C(=O)NC(C)C)cc1-c1nc(N2CCC(N3CCC(C)CC3)CC2)nc2c1ccc(=O)n2-c1c(F)cccc1F` [163(c), 3-[8-(2,6-difluorophenyl)-2-(4-methyl-1,4′-bipiperidin-1′-yl)-7-oxo-7,8-dihydropyrido[2,3-d]pyrimidin-4-yl]-4-methyl-N-(1-methylethyl)benzamide], the “inhibition of neutrophilia (neutrophil levels in airway lavage relative to no compound controls)” value was “statistically nonsignificant inhibition of neutrophilia”.
As for `CCN(CC)CCCNc1nc(-c2cc(C(=O)NCCF)ccc2C)c2ccc(=O)n(-c3c(F)cccc3F)c2n1` [Example 133, 3-[2-{[3-(diethylamino)propyl]amino}-8-(2,6-difluorophenyl)-7-oxo-7,8-dihydropyrido[2,3-d]pyrimidin-4-yl]-N-(2-fluoroethyl)-4-methylbenzamidetrifluoroacetate], the entry is “statistically significant inhibition of neutrophilia”.
For the compound `Cc1ccc(C(=O)Nc2ccc(F)cc2)cc1-c1nc(N(C)CCN(C)C)nc2c1ccc(=O)n2-c1c(F)cccc1F` [Example 99, 3-{8-(2,6-difluorophenyl)-2-[[2-(dimethylamino)ethyl](methyl)amino]-7-oxo-7,8-dihydropyrido[2,3-d]pyrimidin-4-yl}-N-(4-fluorophenyl)-4-methylbenzamide], the “inhibition of neutrophilia (neutrophil levels in airway lavage relative to no compound controls)” value is reported as “statistically nonsignificant inhibition of neutrophilia”.
